Experimental data from patent US11203591B2, “Substituted 6-azabenzimidazole compounds” (Gilead Sciences, Inc., priority 2018, dated 2021).

Biological target: human HPK1 (MAP4K1) (Homo sapiens (Human), UniProt Q92918)
Assay: HPK1 IC50 Assay (TR-FRET peptide phosphorylation)
Type: biochemical
Summary of the method: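 Pre-activated, dually phosphorylated baculovirus-expressed HPK1 kinase domain (0.15 nM) preincubated 15 min with compound, then reacted 3 h at 25° C with 10 μM ATP and 1 μM STK S1 peptide in BES pH 7.0 buffer. Phosphopeptide read by TR-FRET (665/620 nm); four-parameter fit, geometric-mean IC50.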

[1] = recombinant HPK1 kinase domain 0.15 nM, 10 μM ATP, 1 μM STK S1 peptide, geometric mean of multiple experiments
[2] = 0.15 nM HPK1, 10 μM ATP, 1 μM STK S1 peptide substrate, geometric mean

Sequence of human HPK1 (MAP4K1) (Q92918 17-274): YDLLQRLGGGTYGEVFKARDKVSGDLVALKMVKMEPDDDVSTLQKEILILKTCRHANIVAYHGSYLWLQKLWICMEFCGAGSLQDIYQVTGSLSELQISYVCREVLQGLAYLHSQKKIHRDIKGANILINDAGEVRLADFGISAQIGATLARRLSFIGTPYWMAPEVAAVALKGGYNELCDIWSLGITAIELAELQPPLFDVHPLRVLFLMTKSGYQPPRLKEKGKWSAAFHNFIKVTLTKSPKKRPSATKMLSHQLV

Row | IC50 [1] | IC50 [2] | SMILES
1 | 0.1 nM |  | CC(C)n1cnc2cc(-c3ccc4c(c3)N([C@H]3C[C@@](C)(N5CCCCC5)C3)C(=O)C4(C)C)nc(Nc3cc(C(=O)NC4(C(F)F)CC4)c(Cl)c(F)c3F)c21 [Example 241, 2-Chloro-N-(1-(difluoromethyl)cyclopropyl)-5-((6-(3,3-dimethyl-1-((1s,3s)-3-methyl-3-(piperidin-1-yl)cyclobutyl)-2-oxoindolin-6-yl)-3-isopropyl-3H-imidazo[4,5-c]pyridin-4-yl)amino)-3,4-difluorobenzamide]
2 | 0.07 nM |  | CC(C)n1cnc2cc(-c3cnc4c(c3)N([C@H]3C[C@@](C)(N5CCCCC5)C3)C(=O)C4(C)C)nc(Nc3cc(C(=O)NC4(C(F)F)CC4)cc(F)c3F)c21 [Example 242, N-(1-(difluoromethyl)cyclopropyl)-3-((6-(3,3-dimethyl-1-((1s,3s)-3-methyl-3-(piperidin-1-yl)cyclobutyl)-2-oxo-2,3-dihydro-1H-pyrrolo[3,2-b]pyridin-6-yl)-3-isopropyl-3H-imidazo[4,5-c]pyridin-4-yl)amino)-4,5-difluorobenzamide]
3 |  | 0.07 nM | CCNC(=O)c1cc(Nc2nc(-c3cc4c(nc3F)C(C)(C)C(=O)N4[C@H]3C[C@@](C)(N4CCCCC4)C3)cc3ncn(C(C)C)c23)c(F)c(F)c1Cl [Example 273, 2-chloro-N-ethyl-3,4-difluoro-5-((6-(5-fluoro-3,3-dimethyl-1-((1s,3s)-3-methyl-3-(piperidin-1-yl)cyclobutyl)-2-oxo-2,3-dihydro-1H-pyrrolo[3,2-b]pyridin-6-yl)-3-isopropyl-3H-imidazo[4,5-c]pyridin-4-yl)amino)benzamide]
4 | 0.07 nM |  | Cc1c(C(=O)NC2(C(F)F)CC2)cc(Nc2nc(-c3ccc4c(c3)N([C@H]3C[C@@H](N5C[C@H]6CC[C@@H]5C6)C3)C(=O)C4(C)C)cc3ncn(C(C)C)c23)c(F)c1F [Example 145, 5-((6-(1-((1S,3s)-3-((1R,4S)-2-azabicyclo[2.2.1]heptan-2-yl)cyclobutyl)-3,3-dimethyl-2-oxoindolin-6-yl)-3-isopropyl-3H-imidazo[4,5-c]pyridin-4-yl)amino)-N-(1-(difluoromethyl)cyclopropyl)-3,4-difluoro-2-methylbenzamide]
5 |  | 0.07 nM | Cc1c(C(=O)NCC(F)F)cc(Nc2nc(-c3cc4c(nc3F)C(C)(C)C(=O)N4[C@H]3C[C@@](C)(N4CCCCC4)C3)cc3ncn(C(C)C)c23)c(F)c1F [Example 269, N-(2,2-difluoroethyl)-3,4-difluoro-5-((6-(5-fluoro-3,3-dimethyl-1-((1s,3s)-3-methyl-3-(piperidin-1-yl)cyclobutyl)-2-oxo-2,3-dihydro-1H-pyrrolo[3,2-b]pyridin-6-yl)-3-isopropyl-3H-imidazo[4,5-c]pyridin-4-yl)amino)-2-methylbenzamide]
6 | 0.3 nM |  | COCC1(NC(=O)c2cc(Nc3nc(-c4ccc5c(c4)N([C@H]4C[C@@H](N6CCCCC6)C4)C(=O)C54CCN(C(C)=O)CC4)cc4ncn(C(C)C)c34)c(F)cc2C)CC1 [Example 90]
7 | 0.08 nM |  | CNC(=O)c1cc(Nc2nc(-c3ccc4c(c3)N([C@H]3C[C@@H](N5CCCCC5)C3)C(=O)C4(C)C)cc3ncn(C(C)C)c23)ccc1C [Example 1, 5-((6-(3,3-dimethyl-2-oxo-1-((1s,3s)-3-(piperidin-1-yl)cyclobutyl)indolin-6-yl)-3-isopropyl-3H-imidazo[4,5-c]pyridin-4-yl)amino)-N,2-dimethylbenzamide]
8 | 0.06 nM |  | Cc1ccc(Nc2nc(-c3ccc4c(c3)N([C@H]3C[C@@H](N5CCCCC5)C3)C(=O)C4(C)C)cc3ncn(C(C)C)c23)cc1C(=O)NCC(C)C [Example 139]
9 |  | 0.1 nM | CC(C)n1cnc2cc(-c3cnc4c(c3)N([C@H]3C[C@@](C)(N5CCCC6(CC6)C5)C3)C(=O)C4(C)C)nc(Nc3cc(C(=O)NCC(F)F)c(Cl)c(F)c3F)c21 [Example 282, 2-chloro-N-(2,2-difluoroethyl)-5-((6-(3,3-dimethyl-1-((1s,3s)-3-methyl-3-(5-azaspiro[2.5]octan-5-yl)cyclobutyl)-2-oxo-2,3-dihydro-1H-pyrrolo[3,2-b]pyridin-6-yl)-3-isopropyl-3H-imidazo[4,5-c]pyridin-4-yl)amino)-3,4-difluorobenzamide]
10 | 0.08 nM |  | CC(C)n1cnc2cc(-c3cnc4c(c3)N([C@H]3C[C@@](C)(N5CCCCC5)C3)C(=O)C4(C)C)nc(Nc3cc(C(=O)NC4(C(F)F)CC4)c(Cl)c(F)c3F)c21 [Example 207, 2-Chloro-N-(1-(difluoromethyl)cyclopropyl)-5-((6-(3,3-dimethyl-1-((1s,3s)-3-methyl-3-(piperidin-1-yl)cyclobutyl)-2-oxo-2,3-dihydro-1H-pyrrolo[3,2-b]pyridin-6-yl)-3-isopropyl-3H-imidazo[4,5-c]pyridin-4-yl)amino)-3,4-difluorobenzamide]
11 |  | 0.06 nM | Cc1cc(F)c(Nc2nc(-c3ccc4c(c3)N([C@H]3C[C@@](C)(N5CCCCC5)C3)C(=O)C4(C)C)cc3ncn(C(C)C)c23)cc1C(=O)NCC(F)F [Example 266, N-(2,2-difluoroethyl)-5-((6-(3,3-dimethyl-1-((1s,3s)-3-methyl-3-(piperidin-1-yl)cyclobutyl)-2-oxoindolin-6-yl)-3-isopropyl-3H-imidazo[4,5-c]pyridin-4-yl)amino)-4-fluoro-2-methylbenzamide]
12 |  | 0.1 nM | CCNC(=O)c1cc(Nc2nc(-c3cc4c(nc3F)C(C)(C)C(=O)N4[C@H]3C[C@@](C)(N4CCCC5(CC5)C4)C3)cc3ncn(C(C)C)c23)c(F)c(F)c1Cl [Example 270, 2-chloro-N-ethyl-3,4-difluoro-5-((6-(5-fluoro-3,3-dimethyl-1-((1s,3s)-3-methyl-3-(5-azaspiro[2.5]octan-5-yl)cyclobutyl)-2-oxo-2,3-dihydro-1H-pyrrolo[3,2-b]pyridin-6-yl)-3-isopropyl-3H-imidazo[4,5-c]pyridin-4-yl)amino)benzamide]
13 | 0.2 nM |  | CNC(=O)c1cc(Nc2nc(-c3ccc4c(c3)N([C@H]3C[C@@H](N5CCC6(C5)CC6(F)F)C3)C(=O)C43CCN(C(C)=O)CC3)cc3ncn(C(C)C)c23)ccc1C (some centres unmarked) [Example 164]
14 | 0.2 nM |  | Cc1c(C(=O)NC2(C(F)F)CC2)cc(Nc2nc(-c3cnc4c(c3)N([C@H]3C[C@@](C)(N5CCOC6(CC6)C5)C3)C(=O)C4(C)C)cc3ncn(C(C)C)c23)c(F)c1F [Example 193, N-(1-(Difluoromethyl)cyclopropyl)-5-((6-(3,3-dimethyl-1-((1s,3s)-3-methyl-3-(4-oxa-7-azaspiro[2.5]octan-7-yl)cyclobutyl)-2-oxo-2,3-dihydro-1H-pyrrolo[3,2-b]pyridin-6-yl)-3-isopropyl-3H-imidazo[4,5-c]pyridin-4-yl)amino)-3,4-difluoro-2-methylbenzamide]
15 | 0.06 nM |  | CNC(=O)c1cc(Nc2nc(-c3ccc4c(c3)N([C@H]3C[C@@H](N5C[C@H]6CC[C@@H]5C6)C3)C(=O)C43CCN(C(=O)C4COC4)CC3)cc3ncn(C4CC4)c23)ccc1C [Example 42]

Row | SMILES | IC50 [1] | IC50 [2]
16 | CNC(=O)c1cc(Nc2nc(-c3ccc4c(c3)N([C@H]3C[C@@H](N5C6COCC5C6)C3)C(=O)C4(C)C)cc3ncn(C(C)C)c23)ccc1C [Example 6] | 0.1 nM | 
17 | Cc1cc(F)c(Nc2nc(-c3ccc4c(c3)N([C@H]3C[C@@H](N5CCC[C@@H](F)C5)C3)C(=O)C43CCN(C4COC4)CC3)cc3ncn(C(C)C)c23)cc1C(=O)NC(C)C [Example 172] | 0.3 nM | 
